These results are taken from publication PMC4008314 (Clinical cancer research : an official journal of the …, 2012).

Molecules are shown by their SMILES.

The nature of data set [1]: clinical. As to conditions: human, in vivo.
The subject of data set [2] is RCCs. Conditions: adults with RCCs; cited from earlier work.

In data set [1], `CNC(=O)c1cc(Oc2ccc(NC(=O)Nc3ccc(Cl)c(C(F)(F)F)c3)cc2)ccn1` [Sorafenib] showed a half-life of at least 24 h. The exposure AUC(0-t) in data set [1] (130 mg/m2, AUC0–24h, day 1) came to 20000 ng·h/mL; in data set [1] (200 mg/m2, AUC0–24h, day 1) it was 19000 ng·h/mL; in data set [1] (200 mg/m2, median steady-state AUC0–12h), 55700 ng·h/mL; in data set [1] (250 mg/m2, AUC0–24h, day 1) it was 27600 ng·h/mL; in data set [1] (mean (SD) AUC0–12h steady state), 61200 ng·h/mL; in data set [1] (po, 150 mg/m2, AUC0–12h, steady state) it was 49700 ng·h/mL. In addition, the AUC(0-t) in data set [1] (po, 150 mg/m2, AUC0–24h, day 1) is 28300 ng·h/mL; in data set [1] (po, 200 mg/m2, AUC0–12h, steady state), 60200 ng·h/mL; in data set [1] (po, 200 mg/m2, AUC0–24h, day 1) it was 27300 ng·h/mL. Also, the Tmax in data set [1] (130 mg/m2, Tmax, day 1) came out at 7.9 h; in data set [1] (150 mg/m2, Tmax, steady state) it was 3 h; in data set [1] (250 mg/m2, Tmax, day 1), 8 h; in data set [1] ([…]2, Tmax, day 1) it was 5 h; in data set [1] (po, 200 mg/m2, Tmax, steady state) it was 3.4 h; in data set [1] (po, […]2, Tmax, day 1) it was 5 h. Further, the maximum concentration (Cmax) in data set [1] (200 mg/m2, Cmax, day 1) was found to be 1000 ng/mL; in data set [1] (po, 130 mg/m2, Cmax, day 1), 1500 ng/mL; in data set [1] (po, 150 mg/m2, Cmax, day 1), 1900 ng/mL; in data set [1] (po, 200 mg/m2, Cmax, day 1) it was 1600 ng/mL; in data set [1] (po, 200 mg/m2, Cmax, steady state), 8300 ng/mL. For the same compound, in data set [2], the objective response is on record as 10%.

As usually defined, the half-life is how long it takes for the measured level to halve. For orientation: AUC(0-t) means exposure summed from dosing to a finite time, without extrapolation to infinity. A word on the Tmax: it is the time at which the peak concentration occurs. As a reminder, the Cmax is the highest concentration seen after dosing.
